# Assay results reported in paper PMC5567816 (ACS chemical biology, 2017).
# pIC50: −log10 of the molar value. Entries after “also recorded” stand apart in the source; their conditions may differ.
# Experiments:
# Hek293 cells [1] = assay: Western blot of Hek293 cells, histone and tubulin acetylation; assay type: cell-based; conditions: inhibitors 1 μM, tubA 0.5 μM, 24 h
# HCT116 and HT29 cells = conditions: 2 μM for 24 h; cited from earlier work
# Hek293 lysates = assay: deacylase activities of Hek293 lysates with inhibitors; assay type: cell-based; conditions: 24 h; vorinostat and PD-106 1 μM, tubA 0.5 μM
# Hek293 cells [2] = assay: global valerylation levels of Hek293 cells; assay type: cell-based; conditions: inhibitors 1 μM, tubA 0.5 μM, 24 h
# HDAC6 = HDAC6 specific inhibitor; cited from earlier work
# Hek293 cells [3] = assay: global formylation levels of Hek293 cells; assay type: cell-based; conditions: inhibitors 1 μM, tubA 0.5 μM, 24 h
# RAW264.7 cells [4] = assay: Western blot of RAW264.7 cells, protein acetylation; assay type: cell-based; conditions: tubA at 0.5 μM
# class IIa HDACs = conditions: cited from earlier work
# RAW264.7 cells [5] = assay: cell viability of RAW264.7 cells; assay type: cell-based
# RAW264.7 macrophages = assay: NO production in LPS-challenged RAW264.7 macrophages; assay type: cell-based; conditions: 1 μM; decrease completely offset when normalized
# A549 cell line = conditions: reasonable concentrations; cited from earlier work
# HDAC3 = HDAC3 (Homo sapiens, UniProt O15379); assay: HDAC3 coincubated with TFA substrate and inhibitor
# RAW264.7 cells [6] = assay: p65 and HDAC3 subcellular localization in LPS-treated RAW264.7 cells; assay type: cell-based; conditions: after LPS treatment
# RAW264.7 cells [7] = assay: HMGB-1 secretion from activated RAW264.7 cells; assay type: cell-based; conditions: LPS-activated RAW264.7; 6 h
# HDAC3, sequence (O15379 whole entry): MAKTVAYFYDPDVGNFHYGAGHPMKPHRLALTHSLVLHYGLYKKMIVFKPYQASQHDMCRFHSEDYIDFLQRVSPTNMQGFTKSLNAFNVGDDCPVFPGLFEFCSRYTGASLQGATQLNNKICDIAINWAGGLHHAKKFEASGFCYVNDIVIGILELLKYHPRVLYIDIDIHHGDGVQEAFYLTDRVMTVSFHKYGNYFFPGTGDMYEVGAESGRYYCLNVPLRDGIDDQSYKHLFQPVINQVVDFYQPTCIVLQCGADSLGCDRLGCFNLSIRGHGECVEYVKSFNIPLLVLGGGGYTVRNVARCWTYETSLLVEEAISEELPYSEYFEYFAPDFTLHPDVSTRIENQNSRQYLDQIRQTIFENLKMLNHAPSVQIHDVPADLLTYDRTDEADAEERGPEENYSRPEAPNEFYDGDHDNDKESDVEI
# HDAC3, sequence (Q9Y618 395-489 partner limits assumed): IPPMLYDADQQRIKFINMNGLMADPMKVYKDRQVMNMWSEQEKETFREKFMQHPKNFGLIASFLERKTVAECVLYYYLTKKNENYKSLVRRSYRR
SMILES,histone H3 and H4 acetylation (Hek293 cells [1]),tubulin acetylation (Hek293 cells [1]),p53 Lys382 acetylation (HCT116 and HT29 cells),deacetylase activity of Hek293 lysates (Hek293 lysates),deformylase activity of Hek293 lysates (Hek293 lysates),devalerylase activity of Hek293 lysates (Hek293 lysates),global protein valerylation (Hek293 cells [2]),pIC50 (HDAC6),global protein formylation (Hek293 cells [3]),p53 Lys382 acetylation (RAW264.7 cells [4]),inhibitory activity for class IIa HDACs (class IIa HDACs),lethality (cell viability) (RAW264.7 cells [5]),"NO release, before normalization to cell count/viability (RAW264.7 macrophages)",p53 Lys373 and Lys382 acetylation (A549 cell line),effect on HDAC3's ability to deacylate the TFA substrate (HDAC3),nuclear localization of HDAC3 (RAW264.7 cells [6]),HMGB-1 secretion (RAW264.7 cells [7])
CN1CCc2c(c3ccccc3n2Cc2ccc(C(=O)NO)cc2)C1 [Tubastatin A],only affected acetylated tubulin levels,only affected acetylated tubulin levels,able to induce hyperacetylation of Lys382,did not affect overall deacetylation activity; also recorded: no effect on deacetylation or devalerylation,did lower deformylation activity,no effect on deacetylation or devalerylation,nonsignificant hypovalerylation,[…],induced global protein hyperformylation,do not demonstrate this increase,–,–,–,–,–,–,–
"O=C(NO)C(c1ccccc1)c1ccccc1 [dPAHA, diphenyl acetic hydroxamic acid]",–,–,–,–,–,–,–,–,–,–,only possesses the ability to inhibit class IIa HDACs,–,–,–,–,–,–
Nc1ccccc1NC(=O)c1ccc(CNC(=O)OCc2cccnc2)cc1 [entinostat],induced hyperacetylation of histones,without affecting tubulin acetylation levels,–,–,–,–,global protein hypervalerylation,–,also capable of this effect,–,–,more lethal than 2a–2c,did lower NO release,–,–,–,–
C/C=C1\NC(=O)[C@H]2CSSCC/C=C/[C@H](CC(=O)N[C@H](C(C)C)C(=O)N2)OC(=O)[C@H](C(C)C)NC1=O [romidepsin],–,–,–,–,–,–,–,–,–,–,–,–,–,induce hyperacetylation of Lys373 and Lys382,–,–,–
O=C(CCCCCCC(=O)Nc1ccccc1)NO [vorinostat],induced hyperacetylation of tubulin and histones H3 and H4,induced hyperacetylation of tubulin and histones H3 and H4,–,inhibit both deacetylation and deformylation; also recorded: lowering in both deacetylation and devalerylation,inhibit both deacetylation and deformylation,lowering in both deacetylation and devalerylation,global protein hypervalerylation,–,caused global protein hyperformylation,–,–,more lethal than 2a–2c,did lower NO release,–,capable of altering HDAC3’s ability to deacylate the TFA substrate,not as pronounced,prevents HMGB-1 secretion
